Experiments:
[1] = system: Acidithiobacillus ferrooxidans strain Wenelen; assay: Batch culture of A. ferrooxidans Wenelen with FIC versus control: biomass and EPS production; assay type: cell-based; settings: for [EPS] ajusted: fitted curve
Protocol: To compare biomass and EPS production in a Acidithiobacillus ferrooxidans, a culture with FIC and a control one, without FIC, were conducted.
Both cultures were carried in 1 L of a 9K medium described in Table 2, with the addition of 30 g/L of ferrous sulfate, with pH set at 1.8, agitation of 250 rpm and air flux of 1 VVM.
In both cultures, the same initial biomass concentration of 1*10^7 cell/mL was inoculated. In sample 1, 80 μM of FIC was added. Cultures were kept for 288 hours and EPS and biomass concentration was periodically measured. Afterwards, specific productivity of EPS was calculated.

[2] = system: Aconitase (EC 4.2.1.3); settings: cited from earlier work
[3] = 80 μM FIC, from hours 48 to 120

fluoroisocitrate [FIC]
amount of EPS per cell (pg EPS/cell) relative to control ([1]; 80 μM FIC, 192 hours): 18 times | EPS yield (pg EPS/cell) relative to control sample ([1]; 80 μM FIC, at 120 hours of culture): 2 times | biomass relative to control sample ([1]; 80 μM FIC, between 120 and 288 hours): lower by one magnitude order | difference in growth rate or EPS production versus control sample ([1]; 80 μM FIC, first 48 hours): no significant differences | EPS production [1, 3]: strong increase | biomass [1, 3]: remains practically constant | EPS ([1]; 80 μM FIC, time 0.0001 hours): 28 mg/L | cel/ml (biomass concentration) ([1]; 80 μM FIC, time 0.0001 hours): 4.69E+06 cel/ml | pg EPS/cel ([1]; 80 μM FIC, time 0.0001 hours): 5.97 pg EPS/cel | [EPS] ajusted ([1]; 80 μM FIC, time 0.0001 hours): 28.00 mg/L | EPS ([1]; 80 μM FIC, time 24 hours): 33.5 mg/L | cel/ml (biomass concentration) ([1]; 80 μM FIC, time 24 hours): 7.81E+06 cel/ml | pg EPS/cel ([1]; 80 μM FIC, time 24 hours): 4.29 pg EPS/cel | [EPS] ajusted ([1]; 80 μM FIC, time 24 hours): 36.49 mg/L | EPS ([1]; 80 μM FIC, time 48 hours): 74 mg/L | cel/ml (biomass concentration) ([1]; 80 μM FIC, time 48 hours): 6.66E+07 cel/ml | pg EPS/cel ([1]; 80 μM FIC, time 48 hours): 1.11 pg EPS/cel | [EPS] ajusted ([1]; 80 μM FIC, time 48 hours): 109.28 mg/L | EPS ([1]; 80 μM FIC, time 120 hours): 341 mg/L | cel/ml (biomass concentration) ([1]; 80 μM FIC, time 120 hours): 7.69E+07 cel/ml | pg EPS/cel ([1]; 80 μM FIC, time 120 hours): 4.44 pg EPS/cel | [EPS] ajusted ([1]; 80 μM FIC, time 120 hours): 306.36 mg/L | EPS ([1]; 80 μM FIC, time 144 hours): 350 mg/L | cel/ml (biomass concentration) ([1]; 80 μM FIC, time 144 hours): 4.16E+07 cel/ml | pg EPS/cel ([1]; 80 μM FIC, time 144 hours): 8.42 pg EPS/cel | [EPS] ajusted ([1]; 80 μM FIC, time 144 hours): 318.74 mg/L | EPS ([1]; 80 μM FIC, time 168 hours): 372.5 mg/L | cel/ml (biomass concentration) ([1]; 80 μM FIC, time 168 hours): 3.41E+07 cel/ml | pg EPS/cel ([1]; 80 μM FIC, time 168 hours): 10.94 pg EPS/cel | [EPS] ajusted ([1]; 80 μM FIC, time 168 hours): 324.73 mg/L | EPS ([1]; 80 μM FIC, time 192 hours): 348.5 mg/L | cel/ml (biomass concentration) ([1]; 80 μM FIC, time 192 hours): 1.41E+07 cel/ml | pg EPS/cel ([1]; 80 μM FIC, time 192 hours): 24.78 pg EPS/cel | [EPS] ajusted ([1]; 80 μM FIC, time 192 hours): 327.88 mg/L | EPS ([1]; 80 μM FIC, time 216 hours): 315 mg/L | cel/ml (biomass concentration) ([1]; 80 μM FIC, time 216 hours): 1.38E+07 cel/ml | pg EPS/cel ([1]; 80 μM FIC, time 216 hours): 22.91 pg EPS/cel | [EPS] ajusted ([1]; 80 μM FIC, time 216 hours): 329.65 mg/L | EPS ([1]; 80 μM FIC, time 288 hours): 305 mg/L | cel/ml (biomass concentration) ([1]; 80 μM FIC, time 288 hours): 1.94E+07 cel/ml | pg EPS/cel ([1]; 80 μM FIC, time 288 hours): 15.74 pg EPS/cel | [EPS] ajusted ([1]; 80 μM FIC, time 288 hours): 331.83 mg/L | effect on EPS and biomass production in culture ([1]; A. ferroxidans culture): enhanced EPS production in detriment of biomass production | EPS specific productivity versus control ([1]; FIC cultures, after the first 30 hours): significant increase | increase in EPS specific productivity versus control ([1]; FIC cultures, around the 50 hours of culture, exponential growth phase): ~30% | inhibition of aconitase [2]: specifically inhibited

From patent US8927246B2, “Method to increase the production of extracellular polymeric substances (EPS) in a Acidithiobacillus ferrooxidans culture by the inhibition of enzymes of tricarboxilic acid cycle” (Universidad de Chile, priority 2010, dated 2015)
